{
  "source": "patent US20240083857A1",
  "about": "“2-Methyl-Quinazolines” (Bayer Pharma Aktiengesellschaft, priority 2017, published 2024)",
  "key": {"[1]": {"target": "human SOS1 (nucleotide exchange of K-Ras^G12C) (Homo sapiens, UniProt Q07889)", "assay": "Biochemical assay 2: K-Ras^G12C activation assay by hSOS1 at high GTP concentration (HTRF)", "settings": "high GTP; read-out: Assay 2 (KRAS-Activation by SOS high GTP) activity expressed as IC50"}, "[2]": {"target": "Epidermal Growth Factor Receptor (EGFR) (Homo sapiens (Human), UniProt P00533)", "sequence (P00533 25-1210)": "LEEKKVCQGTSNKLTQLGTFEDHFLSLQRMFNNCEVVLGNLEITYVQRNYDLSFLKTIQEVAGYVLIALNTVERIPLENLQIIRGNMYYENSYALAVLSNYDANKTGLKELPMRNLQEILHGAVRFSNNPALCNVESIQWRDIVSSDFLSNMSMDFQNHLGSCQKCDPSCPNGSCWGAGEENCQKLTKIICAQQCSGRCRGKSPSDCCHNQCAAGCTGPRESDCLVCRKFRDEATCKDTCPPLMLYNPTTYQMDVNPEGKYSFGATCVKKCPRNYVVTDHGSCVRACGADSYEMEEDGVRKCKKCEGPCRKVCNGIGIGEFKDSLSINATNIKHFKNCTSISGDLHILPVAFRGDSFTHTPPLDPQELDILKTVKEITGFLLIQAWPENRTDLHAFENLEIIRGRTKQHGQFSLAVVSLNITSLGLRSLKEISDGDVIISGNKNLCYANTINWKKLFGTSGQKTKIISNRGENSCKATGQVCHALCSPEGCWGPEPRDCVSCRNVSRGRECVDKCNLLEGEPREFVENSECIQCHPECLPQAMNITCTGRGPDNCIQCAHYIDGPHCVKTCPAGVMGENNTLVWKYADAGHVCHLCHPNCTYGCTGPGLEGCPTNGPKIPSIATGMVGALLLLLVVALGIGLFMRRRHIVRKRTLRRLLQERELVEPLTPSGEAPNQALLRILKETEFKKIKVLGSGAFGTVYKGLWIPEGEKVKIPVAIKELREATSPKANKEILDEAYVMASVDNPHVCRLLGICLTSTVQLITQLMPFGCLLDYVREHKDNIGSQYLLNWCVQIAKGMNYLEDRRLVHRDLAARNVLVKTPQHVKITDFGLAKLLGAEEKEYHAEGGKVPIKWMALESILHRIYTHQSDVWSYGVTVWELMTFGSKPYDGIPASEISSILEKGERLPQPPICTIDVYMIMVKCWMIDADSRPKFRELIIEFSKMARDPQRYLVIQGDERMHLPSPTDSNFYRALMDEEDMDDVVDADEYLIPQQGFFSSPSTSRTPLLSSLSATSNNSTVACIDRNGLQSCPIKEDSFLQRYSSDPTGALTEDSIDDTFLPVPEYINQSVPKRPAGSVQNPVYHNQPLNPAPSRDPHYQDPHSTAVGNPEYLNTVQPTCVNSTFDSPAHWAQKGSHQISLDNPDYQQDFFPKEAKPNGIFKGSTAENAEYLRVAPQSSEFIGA", "assay": "EGFR kinase assay (TR-FRET)", "type": "biochemical", "settings": "values given in μM; read-out: EGFR kinase inhibition IC50", "outline": "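EGFR purified from A431 cells was preincubated with compound 15 min at 22° C in pH 7.0 Hepes buffer with MgCl2, MnCl2 and vanadate before reaction with a biotinylated peptide. After EDTA stop, phosphopeptide was detected by TR-FRET (anti-phosphotyrosine Tb-cryptate, streptavidin-XL665) as the 665/620 nm emission ratio.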"}},
  "note": "pIC50: −log10 of the molar value. Structures can show the parent of a compound that is named as a salt.",
  "data": [
    {"smiles": "COc1cc2nc(C)nc(NC(C)c3cc(-c4ccn(CCO)n4)cs3)c2cc1OC", "note": "(stereo not shown) [Example 273, 2-[3-(5-{1-[(6,7-dimethoxy-2-methylquinazolin-4-yl)amino]ethyl}thiophen-3-yl)-1H-pyrazol-1-yl]ethanol]", "values": [
      {"measurement": "pIC50", "setting": "[1]", "value": 5.63},
      {"measurement": "IC50", "setting": "[2]", "value": "> 20", "unit": "µM"}
    ]},
    {"smiles": "COc1cc2nc(C)nc(NC(C)c3ccc(-c4ccccc4CN4CCNCC4)s3)c2cc1OC", "note": "(stereo not shown) [Example 305, 6,7-dimethoxy-2-methyl-N-[1-{5-[2-(piperazin-1-ylmethyl)phenyl]thiophen-2-yl}ethyl]quinazolin-4-amine hydrochloride]", "values": [
      {"measurement": "pIC50", "setting": "[1]", "value": 7.26},
      {"measurement": "IC50", "setting": "[2]", "value": "> 20", "unit": "µM"}
    ]},
    {"smiles": "COc1cc2nc(C)nc(NC(C)c3ccc(-c4ccccc4CNCC(F)F)s3)c2cc1OC", "note": "(stereo not shown) [Example 315, N-{1-[5-(2-{[(2,2-difluoroethyl)amino]methyl}phenyl)thiophen-2-yl]ethyl}-6,7-dimethoxy-2-methylquinazolin-4-amine]", "values": [
      {"measurement": "pIC50", "setting": "[1]", "value": 6.01},
      {"measurement": "IC50", "setting": "[2]", "value": "> 20", "unit": "µM"}
    ]},
    {"smiles": "COc1cc2nc(C)nc(NC(C)c3ccc(-c4cc(Cl)ccc4CN)s3)c2cc1OC", "note": "(stereo not shown) [Example 292, N-[1-{5-[2-(aminomethyl)-5-chlorophenyl]thiophen-2-yl}ethyl]-6,7-dimethoxy-2-methylquinazolin-4-amine]", "values": [
      {"measurement": "pIC50", "setting": "[1]", "value": 7.41},
      {"measurement": "IC50", "setting": "[2]", "value": "> 20", "unit": "µM"}
    ]},
    {"smiles": "COc1cc2nc(C)nc(NC(C)c3ccc(-c4ccccc4OCCN4CCCC4)s3)c2cc1OC", "note": "(stereo not shown) [Example 325, 6,7-di methoxy-2-methyl-N-[1-(5-{2-[2-(pyrrolidin-1-yl)ethoxy]phenyl}thiophen-2-yl)ethyl]quinazolin-4-amine]", "values": [
      {"measurement": "pIC50", "setting": "[1]", "value": 6.35},
      {"measurement": "IC50", "setting": "[2]", "value": "> 20", "unit": "µM"}
    ]},
    {"smiles": "COc1cc2nc(C)nc(N[C@H](C)c3cccc(-c4c(C)n[nH]c4C)c3)c2cc1OC", "note": "[Example 334, N-{(1R)-1-[3-(3,5-dimethyl-1H-pyrazol-4-yl)phenyl]ethyl}-6,7-dimethoxy-2-methylquinazolin-4-amine]", "values": [
      {"measurement": "pIC50", "setting": "[1]", "value": 6.11},
      {"measurement": "IC50", "setting": "[2]", "value": "> 20", "unit": "µM"}
    ]},
    {"smiles": "COc1cc2nc(C)nc(N[C@H](C)c3cccc(-c4ccc(F)cc4CN)c3)c2cc1OC", "note": "[Example 274, N-{(1R)-1-[2′-(aminomethyl)-4′-fluorobiphenyl-3-yl]ethyl}-6,7-dimethoxy-2-methylquinazolin-4-amine]", "values": [
      {"measurement": "pIC50", "setting": "[1]", "value": 6.85},
      {"measurement": "IC50", "setting": "[2]", "value": "> 20", "unit": "µM"}
    ]},
    {"smiles": "COc1cc2nc(C)nc(NC(C)c3ccc(-c4ccccc4CN4CC(N(C)C)C4)s3)c2cc1OC", "note": "(stereo not shown) [Example 319, N-{1-[5-(2-{[3-(dimethylamino)azetidin-1-yl]methyl}phenyl)thiophen-2-yl]ethyl}-6,7-dimethoxy-2-methylquinazolin-4-amine]", "values": [
      {"measurement": "pIC50", "setting": "[1]", "value": 6.92},
      {"measurement": "IC50", "setting": "[2]", "value": "> 20", "unit": "µM"}
    ]},
    {"smiles": "COc1cc2nc(C)nc(N[C@H](C)c3cccc(CN)c3)c2cc1OC", "note": "[Example 260, N-{(1R)-1-[3-(aminomethyl)phenyl]ethyl}-6,7-dimethoxy-2-methylquinazolin-4-amine]", "values": [
      {"measurement": "pIC50", "setting": "[1]", "value": 5.69},
      {"measurement": "IC50", "setting": "[2]", "value": "> 20", "unit": "µM"}
    ]},
    {"smiles": "COc1cc2nc(C)nc(NC(C)c3ccc(-c4ccccc4CNCC(F)(F)F)s3)c2cc1OC", "note": "(stereo not shown) [Example 300, 6,7-di methoxy-2-methyl-N-{1-[5-(2-{[(2,2,2-trifluoroethyl)amino]methyl}phenyl)thiophen-2-yl]ethyl}quinazolin-4-amine]", "values": [
      {"measurement": "pIC50", "setting": "[1]", "value": 5.51},
      {"measurement": "IC50", "setting": "[2]", "value": "> 20", "unit": "µM"}
    ]},
    {"smiles": "COc1cc2nc(C)nc(NC(C)c3ccc(-c4ccccc4C(C)=O)s3)c2cc1OC", "note": "(stereo not shown) [Example 324, 1-[2-(5-{1-[(6,7-dimethoxy-2-methylquinazolin-4-yl)amino]ethyl}thiophen-2-yl)phenyl]ethanone]", "values": [
      {"measurement": "pIC50", "setting": "[1]", "value": 5.47},
      {"measurement": "IC50", "setting": "[2]", "value": "> 20", "unit": "µM"}
    ]},
    {"smiles": "COc1cc2nc(C)nc(NC(C)c3ccc(-c4ccccc4CN4CCN(C)CC4)s3)c2cc1OC", "note": "(stereo not shown) [Example 308, 6,7-dimethoxy-2-methyl-N-[1-(5-{2-[(4-methylpiperazin-1-yl)methyl]phenyl}thiophen-2-yl)ethyl]quinazolin-4-amine]", "values": [
      {"measurement": "pIC50", "setting": "[1]", "value": 6.64},
      {"measurement": "IC50", "setting": "[2]", "value": "> 20", "unit": "µM"}
    ]},
    {"smiles": "CCN(CC)Cc1ccccc1-c1ccc(C(C)Nc2nc(C)nc3cc(OC)c(OC)cc23)s1", "note": "(stereo not shown) [Example 288, N-[1-(5-{2-[(diethylamino)methyl]phenyl}thiophen-2-yl)ethyl]-6,7-dimethoxy-2-methylquinazolin-4-amine]", "values": [
      {"measurement": "pIC50", "setting": "[1]", "value": 6.85},
      {"measurement": "IC50", "setting": "[2]", "value": "> 20", "unit": "µM"}
    ]},
    {"smiles": "COc1cc2nc(C)nc(NC(C)c3ccc(-c4ccccc4CNCC(=O)c4c[nH]c5ccccc45)s3)c2cc1OC", "note": "(stereo not shown) [Example 277, 2-{[2-(5-{1-[(6,7-dimethoxy-2-methylquinazolin-4-yl)amino]ethyl}thiophen-2-yl)benzyl]amino}-1-(1H-indol-3-yl)ethanone]", "values": [
      {"measurement": "pIC50", "setting": "[1]", "value": 6.63},
      {"measurement": "IC50", "setting": "[2]", "value": "> 20", "unit": "µM"}
    ]},
    {"smiles": "COc1cc2nc(C)nc(NC(C)c3cc(-c4cnc5n4CCC5)cs3)c2cc1OC", "note": "(stereo not shown) [Example 272, N-{1-[4-(6,7-dihydro-5H-pyrrolo[1,2-a]imidazol-3-yl)thiophen-2-yl]ethyl}-6,7-dimethoxy-2-methylquinazolin-4-amine]", "values": [
      {"measurement": "pIC50", "setting": "[1]", "value": 5.82},
      {"measurement": "IC50", "setting": "[2]", "value": "> 20", "unit": "µM"}
    ]},
    {"smiles": "COc1cc2nc(C)nc(N[C@H](C)c3cccc(-c4c(C)noc4C)c3)c2cc1OC", "note": "[Example 336, N-{(1R)-1-[3-(3,5-dimethyl-1,2-oxazol-4-yl)phenyl]ethyl}-6,7-dimethoxy-2-methyl-quinazolin-4-amine]", "values": [
      {"measurement": "pIC50", "setting": "[1]", "value": 5.90},
      {"measurement": "IC50", "setting": "[2]", "value": "> 20", "unit": "µM"}
    ]},
    {"smiles": "COc1cc2nc(C)nc(NC(C)c3ccc(-c4ccccc4CN4CCOCC4)s3)c2cc1OC", "note": "(stereo not shown) [Example 311, 6,7-dimethoxy-2-methyl-N-[1-{5-[2-(morpholin-4-ylmethyl)phenyl]thiophen-2-yl}ethyl]quinazolin-4-amine]", "values": [
      {"measurement": "pIC50", "setting": "[1]", "value": 6.29},
      {"measurement": "IC50", "setting": "[2]", "value": "> 20", "unit": "µM"}
    ]},
    {"smiles": "COc1cc2nc(C)nc(N[C@H](C)c3cccc(-c4ccnn4C)c3)c2cc1OC", "note": "[Example 339, 6,7-dimethoxy-2-methyl-N-{(1R)-1-[3-(1-methyl-1H-pyrazol-5-yl)phenyl]ethyl}quinazolin-4-amine]", "values": [
      {"measurement": "pIC50", "setting": "[1]", "value": 5.86},
      {"measurement": "IC50", "setting": "[2]", "value": "> 20", "unit": "µM"}
    ]},
    {"smiles": "COc1cc2nc(C)nc(NC(C)c3ccc(-c4ccccc4CN(C)CC(F)F)s3)c2cc1OC", "note": "(stereo not shown) [Example 291, N-{1-[5-(2-{[(2,2-difluoroethyl)(methyl)amino]methyl}phenyl)thiophen-2-yl]ethyl}-6,7-dimethoxy-2-methylquinazolin-4-amine]", "values": [
      {"measurement": "pIC50", "setting": "[1]", "value": 5.88},
      {"measurement": "IC50", "setting": "[2]", "value": "> 20", "unit": "µM"}
    ]},
    {"smiles": "COc1cc2nc(C)nc(NC(C)c3c(F)ccc4[nH]ncc34)c2cc1OC", "note": "(stereo not shown) [Example 18, N-[1-(5-fluoro-1H-indazol-4-yl)ethyl]-6,7-dimethoxy-2-methylquinazolin-4-amine]", "values": [
      {"measurement": "pIC50", "setting": "[1]", "value": 5.11},
      {"measurement": "IC50", "setting": "[2]", "value": "> 20", "unit": "µM"}
    ]},
    {"smiles": "COc1cc2nc(C)nc(NC(C)c3ccc(-c4ccccc4CN4CCC4)s3)c2cc1OC", "note": "(stereo not shown) [Example 317, N-[1-{5-[2-(azetidin-1-ylmethyl)phenyl]thiophen-2-yl}ethyl]-6,7-dimethoxy-2-methylquinazolin-4-amine]", "values": [
      {"measurement": "pIC50", "setting": "[1]", "value": 7.20},
      {"measurement": "IC50", "setting": "[2]", "value": "> 20", "unit": "µM"}
    ]},
    {"smiles": "COc1cc2nc(C)nc(NC(C)c3ccc(-c4ccccc4CN4CC[C@H]4CO)s3)c2cc1OC", "note": "(stereo partly drawn) [Example 318, {1-[(2S)-(5-{1-[(6,7-dimethoxy-2-methylquinazolin-4-yl)amino]ethyl}thiophen-2-yl)benzyl]azetidin-2-yl}methanol]", "values": [
      {"measurement": "pIC50", "setting": "[1]", "value": 6.78},
      {"measurement": "IC50", "setting": "[2]", "value": "> 20", "unit": "µM"}
    ]},
    {"smiles": "COc1cc2nc(C)nc(NC(C)c3ccc(-c4ccccc4CN4CC(F)C4)s3)c2cc1OC", "note": "(stereo not shown) [Example 322, N-[1-(5-{2-[(3-fluoroazetidin-1-yl)methyl]phenyl}thiophen-2-yl)ethyl]-6,7-dimethoxy-2-methylquinazolin-4-amine]", "values": [
      {"measurement": "pIC50", "setting": "[1]", "value": 6.61},
      {"measurement": "IC50", "setting": "[2]", "value": "> 20", "unit": "µM"}
    ]}
  ]
}
